Reference: patent publication US9095534B2, “Intermittent dosing of nitric oxide gas” (SENSORMEDICS CORPORATION, priority 2004, dated 2015)

How the values were obtained:
[1] = test system: P. aeruginosa (ATCC #27853); assay: Survival of bacteria under cycled high/low NO gas exposure (cfu/ml); type: cell-based; details: 160 ppm for 30 minutes then 20 ppm for 3.5 hours, cycled every 4 hours for 24 hours; compared to air; FIG. 7
Description: (§1) The effectiveness of the intermittent nigh dose delivery of […] oxide gas in combating microorganisms was tested and verified. Briefly, the experimental methods were as follows. Inoculums of varying bacteria was prepared to a suspension of 2.5×10^8 cfu/ml, and diluted 1:1000 in sterile normal saline. Three milliliters of the inoculums were used per well in a sterile culture place. Exposure of the inoculums were performed in an exposure chamber, which has been described for example, in Gliafarri, A. et al., “A direct nitric oxide gas delivery system for bacterial and mammalian cell cultures,” Nitric Oxide. 12(3):129-40 (May 2005), which is hereby incorporated by reference as if fully set forth herein. The inoculums were exposed to 160 ppm of NO gas at a flow rate of 2.5 liters per minute for 30 minutes followed by exposure to 20 ppm of NO gas for 3.5 hours. The exposure to high and low concentrations of NO gas was repeatedly cycled every 4 hours for 24 hours. At various times (e.g., 0, 4, 8, and 12 hours), samples were taken and plated to determine the survivability of the bacteria as determined by counting cfu/ml.

E. coli = assay: as above; type: cell-based; details: 160 ppm for 30 minutes then 20 ppm for 3.5 hours, cycled every 4 hours for 24 hours; compared to air; FIG. 9
Description: as §1

[2] = test system: P. aeruginosa (clinical strain from Cystic Fibrosis); assay: as above; type: cell-based; details: 160 ppm for 30 minutes then 20 ppm for 3.5 hours, cycled every 4 hours for 24 hours; compared to air; FIG. 8
Description: as §1

S. aureus (ATCC #25923) = assay: as above; type: cell-based; details: 160 ppm for 30 minutes then 20 ppm for 3.5 hours, cycled every 4 hours for 24 hours; compared to air; FIG. 6
Description: as §1

[3] = test system: mycothiol-deficient Mycobacterium smegmatis Mutant MshA; assay: Survival of mycothiol-deficient mutant versus wild type on exposure to NO gas; type: cell-based; details: 200 ppm NO gas; FIG. 10
Description: (§2) Additional studies were performed to test the hypothesis that the effect of NO gas in killing microorganisms is related to thiol function. […] This may be due to Mycobacteria having an exceptional thiol, mycothiol, that maintains the redox balance in the cell and protects the cell from nitrosative and oxidative stress. In order to test this hypothesis, sensitivities to NO gas was compared between mycothiol-deficient Mycobacterium smegmatis Mutant MshA to its wild type counterpart, mc^2155 by exposing both strains to 200 ppm of NO gas. MshA is an enzyme needed in mycothiol biosynthesis.

Mycobacteria = assay: Sensitivity of various microorganisms to NO gas damage; type: cell-based; details: relative to other microorganisms studied
Description: as §2

[4] = test system: mycothiol in wild type M. smegmatis; assay: Mycothiol level by HPLC after exposure to NO gas; type: cell-based, Mycobacterium smegmatis; details: 400 ppm NO gas, compared to exposure to air, FIG. 11
Description: Further experiments were conducted to assay and measure the mycothiol level using HPLC in wild type M. smegmatis after exposure to 400 ppm NO gas and were compared to mycothiol level after exposure to air.

[N]=O [nitric oxide]
survival of P. aeruginosa (ATCC #27853) [1]: effective method of killing the bacteria
survival of E. coli (E. coli): effective method of killing the bacteria
survival of P. aeruginosa (clinical strain from Cystic Fibrosis) [2]: effective method of killing the bacteria
survival of S. aureus (ATCC #25923) (S. aureus (ATCC #25923)): effective method of killing the bacteria
sensitivity of MshA mutant to NO gas versus wild type mc^2155 [3]: more sensitive to NO gas than its wild type counterpart
time to kill MshA mutant versus wild type mc^2155 [3]: killed in less time than its wild type counterpart
sensitivity of Mycobacteria to NO gas damage (Mycobacteria): less sensitive to NO gas damage
level of mycothiol in wild type M. smegmatis [4]: reduced compared to exposure to air
